Assay [1] concerns Rattus norvegicus. Briefly: Antihyperglycemic activity in sucrose loaded Charles Foster/Wistar rat model assessed as reduction in blood glucose level at 100 mg/kg. The assay is classed as functional. Also noted: scale not given: the % may be the effect or the level left.
Assay [2] deals with Rattus norvegicus. The assay can be described thus: Antihyperglycemic activity in sucrose challenged streptozotocin-induced diabetic Sprague-Dawley rat model assessed as reduction in blood glucose level at 100 mg/kg after 24 hrs. The assay is classed as functional. Further details: scale not given: the % may be the effect or the level left.
Assay [3] addresses Dipeptidyl peptidase 4 (Homo sapiens) (UniProt P27487). The assay can be described thus: Inhibition of DPP4 at 100 uM.
Assay [4] concerns the target T1, Tyrosine-protein phosphatase non-receptor type 1 (Homo sapiens, UniProt P18031).
T1 sequence (P18031 whole entry): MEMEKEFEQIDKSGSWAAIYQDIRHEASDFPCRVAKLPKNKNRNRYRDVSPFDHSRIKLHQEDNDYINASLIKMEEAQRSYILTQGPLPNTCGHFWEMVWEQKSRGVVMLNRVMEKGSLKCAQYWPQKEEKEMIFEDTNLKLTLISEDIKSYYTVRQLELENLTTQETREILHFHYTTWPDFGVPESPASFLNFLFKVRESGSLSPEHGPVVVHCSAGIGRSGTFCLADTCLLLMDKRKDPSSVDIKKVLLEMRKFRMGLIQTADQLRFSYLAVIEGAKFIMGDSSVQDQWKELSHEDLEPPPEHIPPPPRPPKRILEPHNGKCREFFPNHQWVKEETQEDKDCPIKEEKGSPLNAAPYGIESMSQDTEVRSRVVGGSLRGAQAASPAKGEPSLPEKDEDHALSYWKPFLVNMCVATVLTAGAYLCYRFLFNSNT
The assay can be described thus: Inhibition of PTP1B.

In assay [5] the test system is Rattus norvegicus. Briefly: Antidyslipidemic activity against triton WR-1339-induced hyperlipidemia in Charles Foster rat assessed as reduction in plasma total cholesterol level at 100 mg/kg, po after 18 hrs. The assay is classed as functional.
Assay [6] concerns Rattus norvegicus. The assay can be described thus: Antidyslipidemic activity against triton WR-1339-induced hyperlipidemia in Charles Foster rat assessed as reduction in plasma triglyceride level at 100 mg/kg, po after 18 hrs. It counts as functional.
Assay [7] deals with T2, Tyrosine-protein phosphatase non-receptor type 1 (Homo sapiens) (UniProt P18031).
T2 sequence (whole entry): T1 sequence (P18031 whole entry)
Briefly: Inhibition of PTP1B at 100 uM.

Assay [8] has as its target Maltase-glucoamylase (Homo sapiens) (UniProt O43451). Briefly: Inhibition of alpha-glucosidase at 100 uM.
Assay [9] concerns the target T3, Glucose-6-phosphatase catalytic subunit 1 (Homo sapiens) (UniProt P35575).
T3 sequence (whole entry): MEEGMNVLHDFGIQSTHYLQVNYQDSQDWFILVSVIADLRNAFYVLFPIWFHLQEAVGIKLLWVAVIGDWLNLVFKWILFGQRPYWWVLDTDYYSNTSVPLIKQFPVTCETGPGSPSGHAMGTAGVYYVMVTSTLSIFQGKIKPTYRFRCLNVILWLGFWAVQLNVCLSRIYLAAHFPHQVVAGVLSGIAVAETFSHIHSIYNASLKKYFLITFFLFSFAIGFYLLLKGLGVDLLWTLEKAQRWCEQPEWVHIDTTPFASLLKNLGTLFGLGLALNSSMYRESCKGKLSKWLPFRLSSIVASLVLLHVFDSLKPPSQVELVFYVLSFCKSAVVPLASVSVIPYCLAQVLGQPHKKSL
Briefly: Inhibition of glucose 6 phosphatase assessed as inorganic phosphate release at 100 uM.

Assay [10] relates to Rattus norvegicus. The assay can be described thus: Antidyslipidemic activity against triton WR-1339-induced hyperlipidemia in Charles Foster rat assessed as reduction in plasma phospholipid level at 100 mg/kg, po after 18 hrs. It counts as functional.
Assay [11] is described as follows: Inhibition of glycogen phosphorylase assessed as inorganic phosphate release at 100 uM.
Assay [12] deals with Mus musculus. The assay can be described thus: Antihyperglycemic in leptin receptor deficient mouse C57BL/KsBom-db assessed as blood glucose lowering activity at 100 mg/kg after 10 days by oral glucose tolerance test. It counts as functional.
The subject of assay [13] is Mus musculus. Briefly: Antihyperglycemic in leptin receptor deficient mouse C57BL/KsBom-db assessed as blood glucose lowering activity at 100 mg/kg after 5 days by oral glucose tolerance test. It counts as functional.

The source made the active and inactive calls. The calls are words filed in the database; no cut-off is given here.

Dipeptidyl peptidase 4 (Homo sapiens), sequence (P27487 whole entry, looked up): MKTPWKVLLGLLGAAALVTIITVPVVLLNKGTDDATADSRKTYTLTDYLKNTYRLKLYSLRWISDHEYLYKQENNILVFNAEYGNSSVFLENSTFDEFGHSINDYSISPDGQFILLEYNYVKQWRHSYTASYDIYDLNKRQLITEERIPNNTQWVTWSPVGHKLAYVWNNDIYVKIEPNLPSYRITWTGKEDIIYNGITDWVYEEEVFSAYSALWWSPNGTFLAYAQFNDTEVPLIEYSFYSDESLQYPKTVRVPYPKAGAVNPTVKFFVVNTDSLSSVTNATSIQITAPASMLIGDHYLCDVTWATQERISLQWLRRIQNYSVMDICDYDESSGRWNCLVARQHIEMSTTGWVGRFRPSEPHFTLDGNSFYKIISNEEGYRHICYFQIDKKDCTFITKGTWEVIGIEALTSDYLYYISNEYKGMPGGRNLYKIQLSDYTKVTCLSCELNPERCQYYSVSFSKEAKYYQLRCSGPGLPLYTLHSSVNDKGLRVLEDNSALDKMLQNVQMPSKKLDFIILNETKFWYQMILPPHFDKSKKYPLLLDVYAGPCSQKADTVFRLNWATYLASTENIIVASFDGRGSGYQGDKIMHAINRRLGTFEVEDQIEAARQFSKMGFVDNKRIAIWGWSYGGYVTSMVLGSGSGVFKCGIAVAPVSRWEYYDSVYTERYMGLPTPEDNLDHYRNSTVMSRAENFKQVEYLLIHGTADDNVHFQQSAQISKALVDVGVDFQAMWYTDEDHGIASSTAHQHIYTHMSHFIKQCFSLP
Maltase-glucoamylase (Homo sapiens), sequence (O43451 whole entry, looked up): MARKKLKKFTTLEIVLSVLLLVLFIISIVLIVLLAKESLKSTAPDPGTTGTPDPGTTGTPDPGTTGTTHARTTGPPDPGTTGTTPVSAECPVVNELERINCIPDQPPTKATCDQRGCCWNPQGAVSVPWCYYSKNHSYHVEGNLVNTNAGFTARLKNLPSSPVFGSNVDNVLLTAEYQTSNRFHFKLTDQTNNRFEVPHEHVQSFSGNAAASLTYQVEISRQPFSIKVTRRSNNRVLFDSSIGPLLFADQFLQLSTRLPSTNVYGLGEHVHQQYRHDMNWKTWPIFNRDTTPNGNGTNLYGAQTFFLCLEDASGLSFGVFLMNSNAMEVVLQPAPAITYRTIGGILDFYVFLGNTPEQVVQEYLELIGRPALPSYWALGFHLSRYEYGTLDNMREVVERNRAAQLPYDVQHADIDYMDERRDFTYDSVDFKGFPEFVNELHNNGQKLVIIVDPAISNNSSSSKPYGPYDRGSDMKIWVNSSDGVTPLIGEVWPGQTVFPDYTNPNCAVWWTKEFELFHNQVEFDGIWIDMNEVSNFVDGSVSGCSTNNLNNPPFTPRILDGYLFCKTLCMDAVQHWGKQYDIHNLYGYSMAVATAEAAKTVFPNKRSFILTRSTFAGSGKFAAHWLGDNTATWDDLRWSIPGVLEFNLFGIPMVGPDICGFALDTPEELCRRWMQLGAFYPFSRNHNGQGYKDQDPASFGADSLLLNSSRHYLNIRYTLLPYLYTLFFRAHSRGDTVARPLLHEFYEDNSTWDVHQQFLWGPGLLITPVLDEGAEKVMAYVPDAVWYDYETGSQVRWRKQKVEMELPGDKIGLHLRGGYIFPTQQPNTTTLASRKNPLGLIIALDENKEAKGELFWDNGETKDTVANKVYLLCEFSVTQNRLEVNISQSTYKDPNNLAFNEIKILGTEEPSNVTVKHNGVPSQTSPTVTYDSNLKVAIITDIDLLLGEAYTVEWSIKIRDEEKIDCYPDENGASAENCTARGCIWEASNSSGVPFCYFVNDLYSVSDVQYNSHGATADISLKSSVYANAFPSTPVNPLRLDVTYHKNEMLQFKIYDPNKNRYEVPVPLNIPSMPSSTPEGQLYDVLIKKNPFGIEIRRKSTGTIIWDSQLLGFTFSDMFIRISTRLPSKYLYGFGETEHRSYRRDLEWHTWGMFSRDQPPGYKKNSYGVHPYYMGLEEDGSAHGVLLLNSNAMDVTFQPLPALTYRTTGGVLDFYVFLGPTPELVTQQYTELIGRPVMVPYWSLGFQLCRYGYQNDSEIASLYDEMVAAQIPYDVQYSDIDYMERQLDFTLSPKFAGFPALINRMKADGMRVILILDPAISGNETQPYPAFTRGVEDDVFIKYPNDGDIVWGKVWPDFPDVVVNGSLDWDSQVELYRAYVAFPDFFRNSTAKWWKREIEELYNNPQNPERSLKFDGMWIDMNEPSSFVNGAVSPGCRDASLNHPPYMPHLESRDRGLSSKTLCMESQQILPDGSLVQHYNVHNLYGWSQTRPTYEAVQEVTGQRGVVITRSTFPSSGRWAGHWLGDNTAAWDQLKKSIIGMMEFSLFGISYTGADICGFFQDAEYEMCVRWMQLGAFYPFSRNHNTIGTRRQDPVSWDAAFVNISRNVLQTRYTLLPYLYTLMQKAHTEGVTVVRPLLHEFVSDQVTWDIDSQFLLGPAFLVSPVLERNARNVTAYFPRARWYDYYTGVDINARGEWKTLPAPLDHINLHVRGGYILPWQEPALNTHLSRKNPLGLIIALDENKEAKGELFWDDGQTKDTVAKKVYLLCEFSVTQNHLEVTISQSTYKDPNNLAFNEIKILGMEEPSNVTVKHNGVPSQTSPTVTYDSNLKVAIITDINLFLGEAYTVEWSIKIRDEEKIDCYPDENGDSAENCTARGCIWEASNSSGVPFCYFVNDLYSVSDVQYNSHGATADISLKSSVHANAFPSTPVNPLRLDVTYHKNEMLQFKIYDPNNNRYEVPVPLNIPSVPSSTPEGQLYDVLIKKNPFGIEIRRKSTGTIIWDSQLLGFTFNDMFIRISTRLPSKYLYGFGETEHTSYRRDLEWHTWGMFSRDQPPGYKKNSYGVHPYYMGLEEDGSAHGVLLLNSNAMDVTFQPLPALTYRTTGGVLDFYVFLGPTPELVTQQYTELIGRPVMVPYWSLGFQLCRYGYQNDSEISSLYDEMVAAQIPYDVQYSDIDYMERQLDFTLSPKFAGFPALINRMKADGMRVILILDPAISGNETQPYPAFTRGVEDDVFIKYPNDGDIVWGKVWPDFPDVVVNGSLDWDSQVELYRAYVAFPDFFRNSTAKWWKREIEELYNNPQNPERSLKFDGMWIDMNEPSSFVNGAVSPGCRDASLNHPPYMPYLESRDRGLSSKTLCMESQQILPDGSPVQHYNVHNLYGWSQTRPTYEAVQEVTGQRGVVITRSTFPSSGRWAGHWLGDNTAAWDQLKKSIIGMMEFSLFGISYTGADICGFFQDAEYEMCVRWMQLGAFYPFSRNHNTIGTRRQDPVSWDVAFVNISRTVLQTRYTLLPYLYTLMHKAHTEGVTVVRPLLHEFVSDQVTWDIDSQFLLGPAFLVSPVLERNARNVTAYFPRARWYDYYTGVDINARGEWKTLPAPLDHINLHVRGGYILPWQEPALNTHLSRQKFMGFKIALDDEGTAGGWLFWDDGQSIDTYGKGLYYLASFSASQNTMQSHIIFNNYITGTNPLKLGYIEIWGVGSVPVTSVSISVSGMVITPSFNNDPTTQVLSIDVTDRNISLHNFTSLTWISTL

Broadly, the inhibition is the relative decrease from the control value, in per cent. Usually IC50 stands for the concentration at which inhibition is half-maximal. Consider `CCCCN(CCCC)CC1(COCC)COc2ccc3c(C)cc(=O)oc3c2C1=O` (stereo not drawn), for which the Activity with Rattus norvegicus [1] is 30.6%; in the assay with Rattus norvegicus [2], 24.4%. Further, the inhibition result in assay [3] is “inactive”. In [4], this molecule came in with an IC50 of 40.5 µM. The outcome with Rattus norvegicus [5], in the assay on Rattus norvegicus [6] and in the assay on Rattus norvegicus [10] was Active. Further, the inhibition stood at 80.5% in assay [7], 27.9% in assay [8], 11.1% in assay [9] and 8.7% in assay [11].

In the case of `CCOCC1(CN2CCCC2)COc2ccc3c(C)cc(=O)oc3c2C1=O` (stereo not drawn), the Activity in the assay with Rattus norvegicus [1] worked out at 31.8%; in the assay on Rattus norvegicus [2], 28.8%. Further, the inhibition in [3] amounted to 13.2%; in [7], 72.1%; in assay [8] it was 12%; in assay [9], 8.31%; in assay [11], 8.3%. This molecule showed an IC50 in assay [4] of 82.7 µM.

Consider `Cc1ccc(C)c(OCCCC(C)(C)C(=O)O)c1` [GEMFIBROZIL], for which the results for the Activity with Rattus norvegicus [5], in the assay with Rattus norvegicus [6] and with Rattus norvegicus [10] were 37.1%, 36.1% and 39.1%, respectively.

As to `CCOCC1(CN2CCOCC2)COc2ccc3c(C)cc(=O)oc3c2C1=O` (stereo not drawn), the Activity with Rattus norvegicus [1] was 35.5%; with Mus musculus [12], 38%; with Mus musculus [13] it was 21.1%; in the assay with Rattus norvegicus [2] it was 35.5%. Moreover, the inhibition entry in assay [3] and in [8] was “inactive” throughout. The molecule further returned an IC50 in assay [4] of 24.5 µM. Besides, the outcome with Rattus norvegicus [5], in the assay on Rattus norvegicus [6] and in the assay on Rattus norvegicus [10] was Active. Moreover, the inhibition in assay [7] came to 92.2%; in assay [9], 12.4%; in assay [11], 8.4%.

Consider `Cc1cc(=O)oc2c3c(ccc12)OCC(CN1CCN(c2ccccc2)CC1)(CN1CCN(c2ccccc2)CC1)C3=O`, for which the inhibition in assay [3] was determined as 15.2%; in assay [7], 28.7%; in assay [8], 15.9%; in [9] it was 21.5%; in [11] it was 22.1%.

On to `CCN(CC)CC1(CN(CC)CC)COc2ccc3c(C)cc(=O)oc3c2C1=O`, for which the inhibition was 8.1% in [3]; 41.3% in assay [7]; 8.5% in [8]; 9.45% in assay [9]; 12.2% in assay [11].

As to `CCOCC1(CN2CCN(c3ccccc3)CC2)COc2ccc3c(C)cc(=O)oc3c2C1=O` (stereo not drawn), the inhibition entry in [3] and in [11] was “inactive” throughout. Moreover, the IC50 in assay [4] worked out at 70.6 µM. Besides, the inhibition amounted to 62.3% in assay [7], 16.2% in [8] and 31.7% in [9].

On to `Cc1cc(=O)oc2c3c(ccc12)OCC(CO)(CN1CCCC1)C3=O` (stereo not drawn), for which the Activity in the assay on Rattus norvegicus [1] is given as 30.3%; with Rattus norvegicus [2], 24%. In addition, the inhibition in assay [3] is 8.3%; in assay [7], 74.6%; in assay [8], 22.1%; in assay [9], 5.83%; in assay [11], 8.3%. The molecule further registered an IC50 in assay [4] of 56.7 µM.

`CCOCC1(CN2CCN(c3ccccn3)CC2)COc2ccc3c(C)cc(=O)oc3c2C1=O` (stereo not drawn): the inhibition result in assay [3] was “inactive”. Half-maximal inhibition in assay [4] (IC50) was put at 76.2 µM. In addition, the inhibition came to 54.5% in [7], 11.3% in [8], 9.67% in [9] and 30.1% in [11].

On to `CCOCC1(CN2CCCCC2)COc2ccc3c(C)cc(=O)oc3c2C1=O` (stereo not drawn), for which the Activity with Rattus norvegicus [1] came to 38.1%; in the assay on Mus musculus [12], 42%; in the assay with Mus musculus [13], 19.5%; in the assay on Rattus norvegicus [2] it was 37.7%. In addition, the inhibition is 12.6% in assay [3], 88.5% in [7], 6.56% in [9] and 8.5% in assay [11]. In assay [4], this molecule returned an IC50 of 36.2 µM. For the same molecule, the result in the assay on Rattus norvegicus [5], with Rattus norvegicus [6] and with Rattus norvegicus [10] was Active. Also, in assay [8], the inhibition result was “inactive”.

Regarding `Cc1cc(=O)oc2c3c(ccc12)OCC(CN1CCCCC1)(CN1CCCCC1)C3=O`, the inhibition turned out to be 6.8% in [3]; 33.3% in [7]; 7.3% in [8]; 13.8% in [9]; 17.2% in assay [11].

Regarding `Cc1cc(=O)oc2c3c(ccc12)OCC(CN1CCCC1)(CN1CCCC1)C3=O`, the inhibition was determined as 8.2% in [3], 29.8% in [7], 8.28% in [9] and 15.2% in assay [11]. Moreover, the inhibition result in [8] is “inactive”.

Turning to `Cc1cc(=O)oc2c3c(ccc12)OCC(CN1CCN(C)CC1)(CN1CCN(C)CC1)C3=O`, the inhibition in assay [3] was 12.5%; in assay [7], 22%; in assay [8], 6.4%; in assay [9], 13%; in assay [11], 10.2%.

As for `Cc1cc(=O)oc2c3c(ccc12)OCC(CO)(CN1CCOCC1)C3=O` (stereo not drawn), the values for the Activity in the assay with Rattus norvegicus [1] and with Rattus norvegicus [2] were 28.2% and 25.3%, respectively. The inhibition in assay [3] worked out at 12%; in assay [7], 83.3%; in assay [8], 34.3%; in [9], 3.5%. In addition, the IC50 in [4] came out at 52.4 µM. Besides, the outcome with Rattus norvegicus [5], in the assay with Rattus norvegicus [6] and with Rattus norvegicus [10] was Active. The inhibition entry in assay [11] is “inactive”.

As for `Cc1cc(=O)oc2c3c(ccc12)OCC(CN1CCOCC1)(CN1CCOCC1)C3=O`, the inhibition stood at 8.8% in assay [3]; 24.7% in assay [7]; 8.3% in assay [8]; 6.78% in assay [9]; 12.8% in assay [11].

With `CCOCC1(CN(CC)CC)COc2ccc3c(C)cc(=O)oc3c2C1=O` (stereo not drawn), the inhibition result in assay [3], in assay [8] and in [11] was “inactive” each time. Besides, inhibition in assay [4] was half-maximal at 90.4 µM (IC50). For the same molecule, the outcome in the assay with Rattus norvegicus [5], in the assay on Rattus norvegicus [6] and with Rattus norvegicus [10] was Active. Also, the results for the inhibition in assay [7] and in assay [9] were 74.1% and 24.2%, respectively.

On to `CCOCC1(CN2CCN(C)CC2)COc2ccc3c(C)cc(=O)oc3c2C1=O` (stereo not drawn), for which the Activity with Rattus norvegicus [1] was 32.5%; in the assay on Rattus norvegicus [2], 18.7%. For the same molecule, the inhibition amounted to 7.9% in assay [3], 70.3% in assay [7], 17.4% in assay [9] and 26.9% in assay [11]. Half-maximal inhibition in assay [4] (IC50) was put at 65.5 µM. Further, the outcome in the assay with Rattus norvegicus [5], with Rattus norvegicus [6] and in the assay on Rattus norvegicus [10] was Active. The inhibition result in [8] is “inactive”.

With `CCCCN(CCCC)CC1(CN(CCCC)CCCC)COc2ccc3c(C)cc(=O)oc3c2C1=O`, the inhibition in assay [3] amounted to 11.4%; in assay [7], 43.6%; in assay [9] it was 20.4%; in assay [11] it was 11.1%. Besides, in assay [8], the inhibition entry was “inactive”.

Regarding `Cc1cc(=O)oc2c3c(ccc12)OCC(CN1CCN(c2ccccn2)CC1)(CN1CCN(c2ccccn2)CC1)C3=O`, the inhibition worked out at 9.8% in assay [3]; 41.3% in [7]; 15.8% in assay [8]; 28% in assay [9]; 11% in [11].

For the molecule `Cc1cc(=O)oc2c3c(ccc12)OCC(CO)(CN1CCCCC1)C3=O` (stereo not drawn), the inhibition result in assay [3] and in [11] was “inactive” in each case. In addition, half-maximal inhibition in [4] (IC50) was put at 62.1 µM. For the same molecule, the outcome in the assay with Rattus norvegicus [5], in the assay with Rattus norvegicus [6] and in the assay with Rattus norvegicus [10] was Active. Besides, the inhibition in assay [7] was 64%; in assay [8] it was 37.3%; in assay [9], 7.36%.

The values above are taken from ChEMBL document CHEMBL1154339, “Pyranocoumarins: a new class of anti-hyperglycemic and anti-dyslipidemic agents” (Bioorg Med Chem Lett, 2009).
